System: NIH-OVCAR3 human ovarian tumor cells
Experiment: Efficacy in OVCAR3 xenograft model (tumor volume)
Format: in vivo, female CB.17 SCID mice
Details: dosed for 42 days
Description: OVCAR3: NIH-OVCAR3 human ovarian tumor cells (15×10^6/mouse) were implanted subcutaneously in female CB.17 SCID mice. The mice were randomized into groups of eight for efficacy, based on tumor volume and treated with either vehicle (0.5% HPMC/0.1% Tween 80), AZD5153; olaparib or the combination of AZD5153 and olaparib approximately 10 days after implantation. AZD5153 was formulated in 0.5% HPMC/0.1% Tween 80 and dosed orally for 42 days. Olaparib was formulated in 50% of 30% w/v HP-β-CD (Kleptose) in purified water and also dosed for 42 days. For the combination groups, olaparib was dosed daily for 42 days and AZD5153 was dosed either daily, for 7 days on and 14 days off for 2 cycles or 14 days on and 7 days off for 2 cycles. Tumor length and width was measured by caliper and tumor volume was calculated using the formula (length×width^2)*π/6 then reported as tumor volume.

COc1nnc2ccc(N3CCC(c4ccc(OCCN5CCN(C)C(=O)[C@H]5C)cc4)CC3)nn12 [AZD5153, (3R)-4-[2-[4-[1-(3-Methoxy-[1,2,4]triazolo[4,3-b]pyridazin-6-yl)-4-piperidyl]phenoxy]ethyl]-1,3-dimethyl-piperazin-2-one]
efficacy (tumor volume) as monotherapy: modestly efficacious

O=C(c1cc(Cc2n[nH]c(=O)c3ccccc23)ccc1F)N1CCN(C(=O)C2CC2)CC1 [olaparib, 4-[(3-{[4-(cyclopropylcarbonyl)piperazin-1-yl]carbonyl}-4-fluorophenyl)methyl]phthalazin-1(2H)-one]
efficacy (tumor volume) as monotherapy: modestly efficacious

Source: US20230038138A1, “COMBINATION THERAPY FOR TREATING CANCER” (ASTRAZENECA AB, priority 2020, published 2023)
